ChEMBL document CHEMBL4837216, “Polymyxin B-inspired non-hemolytic tyrocidine A analogues with significantly enhanced activity against gram-negative bacteria: How cationicity impacts cell specificity and antibacterial mechanism” (Eur J Med Chem, 2021)
≈ marks a conversion by molar mass, not a printed value. Calls of active or inactive are those of the source. The calls are words filed in the database; no cut-off is given here. Where a SMILES comes first, the peptide text is derived from it. Bridges are numbered along the chain shown (N, C = ends). [ ]: non-standard residue; d: D form. The star is where a group is joined. X1 = CC[C@H](C)CCCCC(=O)*; Orn = NCCC[C@H](N)C(=O)O; Dab = NCC[C@H](N)C(=O)O

Legend:
Staphylococcus aureus [1] = test: Antibacterial activity against Staphylococcus aureus ATCC 6538 assessed as inhibition of bacterial growth measured after 17 passages by turbidity based analysis; assay type: functional, organism-based
Escherichia coli [2] = test: Antibacterial activity against Escherichia coli ATCC 8739 assessed as inhibition of bacterial growth measured after 17 passages by turbidity based analysis; assay type: functional, organism-based
Staphylococcus aureus [3] = test: Antibacterial activity against methicillin resistant Staphylococcus aureus assessed as inhibition of bacterial growth measured after 24 hrs by turbidity based analysis; assay type: functional
Escherichia coli [4] = test: Antibacterial activity against Escherichia coli ATCC 8739 assessed as inhibition of bacterial growth measured after 24 hrs by turbidity based analysis; assay type: functional
Pseudomonas aeruginosa = test: Antibacterial activity against Pseudomonas aeruginosa ATCC 27853 assessed as inhibition of bacterial growth measured after 24 hrs by turbidity based analysis; assay type: functional
Staphylococcus aureus [5] = test: Antibacterial activity against Staphylococcus aureus ATCC 6538 assessed as inhibition of bacterial growth measured after 24 hrs by turbidity based analysis; assay type: functional
[6] = Hemolytic activity in human RBC assessed as induction of cell lysis measured after 30 mins by microtiter plate method; assay type: cell-based, Erythrocyte; details: human red blood cells (erythrocytes)
Enterococcus faecalis = test: Antibacterial activity against Enterococcus faecalis ATCC 29212 assessed as inhibition of bacterial growth measured after 24 hrs by turbidity based analysis; assay type: functional
Acinetobacter baumannii = test: Antibacterial activity against Acinetobacter baumannii ATCC 19606 assessed as inhibition of bacterial growth measured after 24 hrs by turbidity based analysis; assay type: functional; details: ATCC 19606 = CIP 70.34 = JCM 6841
Lipopolysaccharide (LPS) = test: Displacement of dansyl-polymyxinB from LPS (unknown origin) assessed as decrease in fluorescence intensity by fluorescence spectrophotometric analysis
Cell membrane [7] = test: Induction of outer membrane permeabilization to NPN in Escherichia coli ATCC 8739 cells assessed as increase in fluorescence intensity by NPN-probe based fluorescence spectrophotometric analysis; assay type: subcellular
Cell membrane [8] = test: Induction of cytoplasmic membrane depolarization in Escherichia coli assessed as increase in fluorescence intensity a 1XMIC by DiSC3-5 dye based fluorescence method
Cell membrane [9] = test: Induction of cytoplasmic membrane depolarization in Staphylococcus aureus assessed as increase in fluorescence intensity a 1XMIC by DiSC3-5 dye based fluorescence method
Cell membrane [10] = test: Induction of cytoplasmic membrane permeabilization in Escherichia coli at 0.5 times MIC measured for 10 mins by propidium iodide dye based fluorescence assay; assay type: subcellular
Cell membrane [11] = test: Induction of cytoplasmic membrane permeabilization in Staphylococcus aureus at 1 times MIC measured for 10 mins by propidium iodide dye based fluorescence assay
Staphylococcus aureus [12] = test: Bactericidal activity against Staphylococcus aureus assessed as decrease in cell survival at 0.5XMIC measured after 24 hrs by colony counting assay; assay type: functional, organism-based
Cell membrane [13] = test: Induction of cytoplasmic membrane permeabilization in Staphylococcus aureus at 0.5 times MIC measured for 10 mins by propidium iodide dye based fluorescence assay; assay type: subcellular
Lipid bilayer [14] = test: Binding affinity to eukaryotic cell membrane mimic DOPC/Cholesterol (3:1) large unilamellar vesicles assessed as calcein leakage measured after 30 mins fluorescence based assay
L02 = test: Cytotoxicity against human L02 cells assessed as reduction in cell viability at 5 uM incubated for 24 hrs by CCK8 assay; assay type: cell-based; details: l02, 24 h
Lipid bilayer [15] = test: Binding affinity to bacterial inner membrane mimic DOPE/DOPG (3:1) large unilamellar vesicles assessed as calcein leakage measured after 30 mins fluorescence based assay
Escherichia coli [16] = test: Bactericidal activity against Escherichia coli assessed as decrease in cell survival at 0.5XMIC measured after 24 hrs by colony counting assay; assay type: functional, organism-based
Cell membrane [17] = test: Induction of cytoplasmic membrane permeabilization in Escherichia coli at 1 times MIC measured for 10 mins by propidium iodide dye based fluorescence assay; assay type: subcellular

SMILES	MIC (Staphylococcus aureus [3])	MIC (Escherichia coli [4])	MIC (Pseudomonas aeruginosa)	MIC (Staphylococcus aureus [5])	HC50 at 0.5 h [6]	MIC (Enterococcus faecalis)	MIC (Acinetobacter baumannii)	Activity (Lipopolysaccharide (LPS))	Activity (Cell membrane [7])	Activity (Cell membrane [8])	Activity (Cell membrane [9])	also measured
O=C(O)c1cn(C2CC2)c2cc(N3CCNCC3)c(F)cc2c1=O												Activity (Staphylococcus aureus [1]): inactive; Activity (Escherichia coli [2]): inactive
CC(C)C[C@@H]1NC(=O)[C@H](CCCN)NC(=O)[C@H](C(C)C)NC(=O)[C@H](Cc2ccc(O)cc2)NC(=O)[C@H](CCCN)NC(=O)[C@H](CC(N)=O)NC(=O)[C@@H](Cc2ccccc2)NC(=O)[C@H](Cc2ccccc2)NC(=O)[C@@H]2CCCN2C(=O)[C@@H](Cc2ccccc2)NC1=O (cyclo(F[dF]N[Orn]YV[Orn]L[dF]P))	5 µM (≈ 6.28 µg/mL)	5 µM (≈ 6.28 µg/mL)	40 µM (≈ 50.3 µg/mL)	2.5 µM (≈ 3.14 µg/mL)	10 µM	1.25 µM (≈ 1.57 µg/mL)	5 µM (≈ 6.28 µg/mL)					
CC(C)[C@@H]1NC(=O)[C@H](CCCN)NC(=O)[C@H](CCCN)NC(=O)[C@H](CCCN)NC(=O)[C@@H](Cc2ccccc2)NC(=O)[C@H](Cc2ccccc2)NC(=O)[C@@H]2CCCN2C(=O)[C@@H](Cc2ccccc2)NC(=O)[C@H](CCCN)NC(=O)[C@H](CCCN)NC1=O	10 µM (≈ 12.1 µg/mL)	80 µM (≈ 96.7 µg/mL)	80 µM (≈ 96.7 µg/mL)	40 µM (≈ 48.3 µg/mL)	> 400 µM	10 µM (≈ 12.1 µg/mL)	80 µM (≈ 96.7 µg/mL)	Active				
CC(C)C[C@@H]1NC(=O)[C@H](CCCN)NC(=O)[C@H](C(C)C)NC(=O)[C@H](CCCN)NC(=O)[C@H](CCCN)NC(=O)[C@H](CCCN)NC(=O)[C@@H](Cc2ccccc2)NC(=O)[C@H](Cc2ccccc2)NC(=O)[C@@H]2CCCN2C(=O)[C@@H](Cc2ccccc2)NC1=O	10 µM (≈ 12.1 µg/mL)	5 µM (≈ 6.04 µg/mL)	20 µM (≈ 24.2 µg/mL)	5 µM (≈ 6.04 µg/mL)	196 µM	5 µM (≈ 6.04 µg/mL)	10 µM (≈ 12.1 µg/mL)	Active	Active	Active	Active	
CC(C)C[C@@H]1NC(=O)[C@H](CCCN)NC(=O)[C@H](C(C)C)NC(=O)[C@H](CCCN)NC(=O)[C@H](CCCN)NC(=O)[C@H](CC(N)=O)NC(=O)[C@@H](Cc2ccccc2)NC(=O)[C@H](Cc2ccccc2)NC(=O)[C@@H]2CCCN2C(=O)[C@@H](Cc2ccccc2)NC1=O	10 µM (≈ 12.1 µg/mL)	10 µM (≈ 12.1 µg/mL)	20 µM (≈ 24.1 µg/mL)	10 µM (≈ 12.1 µg/mL)	70 µM	2.5 µM (≈ 3.02 µg/mL)	10 µM (≈ 12.1 µg/mL)					
NCCC[C@@H]1NC(=O)[C@H](CCCN)NC(=O)[C@H](CCCN)NC(=O)[C@H](CCCN)NC(=O)[C@@H](Cc2ccccc2)NC(=O)[C@H](Cc2ccccc2)NC(=O)[C@@H]2CCCN2C(=O)[C@@H](Cc2ccccc2)NC(=O)[C@H](CCCN)NC(=O)[C@H](CCCN)NC1=O	40 µM (≈ 48.9 µg/mL)	40 µM (≈ 48.9 µg/mL)	80 µM (≈ 97.9 µg/mL)	20 µM (≈ 24.5 µg/mL)	> 400 µM	10 µM (≈ 12.2 µg/mL)	80 µM (≈ 97.9 µg/mL)	Active	Active	inactive	inactive	
CC(C)C[C@@H]1NC(=O)[C@H](CCCN)NC(=O)[C@H](C(C)C)NC(=O)[C@H](Cc2ccc(O)cc2)NC(=O)[C@H](CCC(N)=O)NC(=O)[C@H](CC(N)=O)NC(=O)[C@@H](Cc2ccccc2)NC(=O)[C@H](Cc2ccccc2)NC(=O)[C@@H]2CCCN2C(=O)[C@@H](Cc2ccccc2)NC1=O [TYROCIDINE A] (cyclo(F[dF]NQYV[Orn]L[dF]P))	20 µM (≈ 25.4 µg/mL)	20 µM (≈ 25.4 µg/mL)	80 µM (≈ 102 µg/mL)	2.5 µM (≈ 3.18 µg/mL)	14 µM	2.5 µM (≈ 3.18 µg/mL)	10 µM (≈ 12.7 µg/mL)	Active	Active	Active	Active	Activity (Cell membrane [10]): Active; Activity (Cell membrane [11]): Active; Activity (Staphylococcus aureus [12]): inactive; Activity (Cell membrane [13]): Active; Activity (Lipid bilayer [14]): Active; Activity (L02): Toxic; Activity (Lipid bilayer [15]): Active; Activity (Escherichia coli [16]): inactive; Activity (Cell membrane [17]): Active
CC(C)C[C@@H]1NC(=O)[C@H](CCCN)NC(=O)[C@H](C(C)C)NC(=O)[C@H](Cc2ccc(O)cc2)NC(=O)[C@H](CCC(N)=O)NC(=O)[C@H](CCCN)NC(=O)[C@@H](Cc2ccccc2)NC(=O)[C@H](Cc2ccccc2)NC(=O)[C@@H]2CCCN2C(=O)[C@@H](Cc2ccccc2)NC1=O	20 µM (≈ 25.4 µg/mL)	20 µM (≈ 25.4 µg/mL)	80 µM (≈ 102 µg/mL)	5 µM (≈ 6.35 µg/mL)	20 µM	2.5 µM (≈ 3.18 µg/mL)	5 µM (≈ 6.35 µg/mL)		Active			
CC(C)C[C@@H]1NC(=O)[C@H](CCCN)NC(=O)[C@H](C(C)C)NC(=O)[C@H](CCCN)NC(=O)[C@H](CCC(N)=O)NC(=O)[C@H](CC(N)=O)NC(=O)[C@@H](Cc2ccccc2)NC(=O)[C@H](Cc2ccccc2)NC(=O)[C@@H]2CCCN2C(=O)[C@@H](Cc2ccccc2)NC1=O	10 µM (≈ 12.2 µg/mL)	40 µM (≈ 48.9 µg/mL)	80 µM (≈ 97.7 µg/mL)	10 µM (≈ 12.2 µg/mL)	43 µM	5 µM (≈ 6.11 µg/mL)	10 µM (≈ 12.2 µg/mL)					
CC[C@H](C)CCCCC(=O)N[C@@H](CCN)C(=O)N[C@H](C(=O)N[C@@H](CCN)C(=O)N[C@H]1CCNC(=O)[C@H]([C@@H](C)O)NC(=O)[C@H](CCN)NC(=O)[C@H](CCN)NC(=O)[C@H](CC(C)C)NC(=O)[C@@H](Cc2ccccc2)NC(=O)[C@H](CCN)NC1=O)[C@@H](C)O (X1-[Dab]T[Dab][Dab][Dab][dF]L[Dab][Dab]T; lactam 4-C)								Active				
CC(C)C[C@@H]1NC(=O)[C@H](CCCN)NC(=O)[C@H](C(C)C)NC(=O)[C@H](CCCN)NC(=O)[C@H](CCC(N)=O)NC(=O)[C@H](CCCN)NC(=O)[C@@H](Cc2ccccc2)NC(=O)[C@H](Cc2ccccc2)NC(=O)[C@@H]2CCCN2C(=O)[C@@H](Cc2ccccc2)NC1=O	10 µM (≈ 12.2 µg/mL)	5 µM (≈ 6.11 µg/mL)	40 µM (≈ 48.9 µg/mL)	5 µM (≈ 6.11 µg/mL)	282 µM	5 µM (≈ 6.11 µg/mL)	10 µM (≈ 12.2 µg/mL)		Active	Active	Active	
CC(C)C[C@@H]1NC(=O)[C@H](CCCN)NC(=O)[C@H](C(C)C)NC(=O)[C@H](Cc2ccc(O)cc2)NC(=O)[C@H](CCCN)NC(=O)[C@H](CCCN)NC(=O)[C@@H](Cc2ccccc2)NC(=O)C(Cc2ccccc2)NC(=O)[C@@H]2CCCN2C(=O)[C@@H](Cc2ccccc2)NC1=O (single isomer, unassigned)	5 µM (≈ 6.28 µg/mL)	5 µM (≈ 6.28 µg/mL)	40 µM (≈ 50.3 µg/mL)	5 µM (≈ 6.28 µg/mL)	24 µM	2.5 µM (≈ 3.14 µg/mL)	5 µM (≈ 6.28 µg/mL)					
